From article PMC10135567, “New Indole-3-Propionic Acid and 5-Methoxy-Indole Carboxylic Acid Derived Hydrazone Hybrids as Multifunctional Neuroprotectors” (Antioxidants, 2023)
“Also recorded” adds a separate entry of the source.

Assays:
[1] = MTT cell viability assay (cytotoxicity), bEnd3; format: cell-based, mouse; details: mouse, bEnd3 brain endothelial cells, 1–500 µM
Procedure: Mouse-brain endothelial cell line bEnd3 [36] (CRL-2299) was purchased from the American Type Culture Collection (ATCC, Manassas, VA, USA). The cells were cultured in DMEM (Dulbeco’s modified essential medium) (cat. no. 30-2002, ATCC, Manassas, VA, USA), supplemented with 10% heat-inactivated FBS (cat. no. F7524, Sigma-Aldrich Co. LLC, St. Louis, MO, USA), 1 mM L-glutamine (cat. no. G7513, Sigma-Aldrich Co. LLC, St. Louis, MO, USA) and 1× Antibiotic-Antimycotic solution (penicillin: streptomycin: amphotericin B (100 U/mL: 0.10 mg/mL: 0.25 µg/mL) (cat. no. A5955, Sigma-Aldrich Co. LLC, St. Louis, MO, USA) at 37 °C in a humidified atmosphere containing 5% CO2. The cells were passaged in 75 cm^2 flasks every 3–5 days via trypsinization (StableCell Trypsin solution, cat. no. T2610, Sigma-Aldrich Co. LLC, St. Louis, MO, USA).
Cell viability was assessed via the mitochondrial reductase-dependent reaction of (3-(4,5-dimethylthiazol-2-yl)- 2,5-diphenyl tetrazolium bromide (MTT, cat. no. 475989, Calbiochem, Merck KGaA, Darmstadt, Germany). The SH-SY5Y and bEnd3 cell lines were seeded in 96-well plates at a density of 0.7 × 10^4 (bEnd3) or 2 × 10^4 (SH-SY5Y) cells/well and allowed to adhere for 24 h at 37 °C, 5% CO2. Then, the cells were incubated with the compounds (1–500 μM) for a preset time (24 h). For the solvent, the control cells were treated with DMSO corresponding to the highest concentration of DMSO in the samples (0.5% DMSO) in order to exclude its cytotoxic effect on the cells. For each concentration, a set of at least 6 wells were used. After incubation, the solution from each well was exchanged with fresh culture medium (100 µL/well), containing the MTT reagent (0.5 mg/mL) and incubated for 3 h at 37 °C in a humidified atmosphere and 5% CO2. The obtained formazan crystals were dissolved in 100 µL/well of 5% formic acid in propan-2-ol solution (or DMSO). The absorbance was measured at 570 nm via multiplate reader Tecan Infinite F200 PRO (Tecan Trading AG., Männedorf, Switzerland) or Synergy 2 (BioTek Instruments, Inc., Highland Park, Winooski, VT, USA).
Both the SH-SY5Y and bEnd3 cells were treated with the test compounds in a concentration range from 1 to 500 µM for 24 h.

[2] = Fe(II)-induced deoxyribose degradation assay; format: biochemical; details: 80 µM, 2-deoxyribose 0.5 mM, 0.1 mM FeCl2; for absorbance ratio, % of the controls (deoxyribose degradation): lower = stronger antioxidant
Procedure: (§1) The lipid peroxidation assay and a modification of the deoxyribose-degradation assay were used. Two types of measurement compositions in phosphate buffer (PB–K2HPO4/KH2PO4, pH 7.4) were prepared for both tests: (i) samples, containing the biologically relevant molecules (lecithin emulsion or deoxyribose), iron, and the tested hydrazones at the concentrations indicated below the figures; and (ii) controls, in which the tested hydrazones were omitted. The data for the sample activity were presented as a percentage of the control measurement.
The deoxyribose (0.5 mM) damage was induced by adding FeCl2 (0.1 mM). The measurement compositions were incubated at 37 °C for 30 min. The next step comprised adding 0.5 mL of 2.8% trichloroacetic acid and 0.5 mL of thiobarbituric acid. Then, the samples were heated in boiling water for 20 min, and their absorbance was estimated at 532 nm (characteristic band for the generated chromophore) via Shimadzu UV-1601 UV-vis spectrophotometer.

[3] = O-phenanthroline Fe(II) chelation test; format: physicochemical; details: 200 µM compound, FeCl2
Procedure: The Fe (II)-chelating activity of the tested hydrazones was determined by the O-phenanthroline method. A total of 1 mL sample solutions of 50 mM PB pH 7 contained 0.2 mM O-phenanthroline and 0.05 mM FeCl2 and 0.2 mM hydrazone. In the controls, the tested compounds were omitted. Absorbance was measured at 515 nm via GENESYS 50 UV-VIS spectrophotometer after incubation for 5 min at 37 °C. The data for the sample activity were presented as a percentage of the control measurement. Absorbance spectra of all the samples, the control, and the measurement compositions containing the tested hydrazones and Fe(II) at the concentrations used in the samples were measured.
To explain the results of both systems of Fe(II)-induced oxidative damage, we studied the potency of the tested compounds to chelate-iron (Fe(II)). This was studied by spectrophotometric determination of free iron (Fe(II)) using the ortho-phenanthroline test, as 1,10-phenantroline reacts rapidly with Fe(II) ions in weakly acidic media, generating an orange–red complex (ferroin) with characteristic absorbance spectra (molar absorptivity 1.10.104 (α = 0.20) at ~max 512 nm and a molar ratio 3:1 (R: Fe(II))). The generated complex was stable, and the bound Fe(II) was resistant to oxidation. Lower absorbance of the reaction mixture indicated higher Fe^2+-chelating activity.

[4] = Fe(II)-induced lipid peroxidation assay (LP assay, TBARS); format: biochemical; details: 90 µM, lecithin 1 mg/mL, 0.1 mM FeCl2; lower = stronger antioxidant
Procedure: as §1
The thiobarbituric-acid reactive-substance colorimetric test was performed in a model system of Fe(II)-induced lipid peroxidation as an emulsion prepared from egg yolk phospholipids. Each sample contained 1 mg/mL of lecithin. LP was initiated using 0.1 mM FeCl2. After 30 min incubation at 37 °C, 0.5 mL of 2.8% trichloroacetic acid solution and 0.5 mL of 0.5% thiobarbituric acid solution were added, following a second incubation at 100 °C for 20 min. Centrifugation at 3000 rpm for 20 min at 4 °C was performed, and we determined the absorbance value of the supernatant at 532 nm via Shimadzu UV-1601 UV-VIS spectrophotometer.

Compound | IC50 at 24 h [1] [µM] | absorbance ratio, % of the controls (deoxyribose degradation) [2] | absorbance at 515 nm compared to the controls (Fe(II) chelation) [3] | pro-oxidant effect above the controls (deoxyribose degradation) [2] | absorbance ratio sample/control (lipid peroxidation) [4]
COc1ccc2[nH]c(C(=O)NN=Cc3cccc(O)c3O)cc2c1 [Compound 5a, N′-(2,3-Dihydroxybenzylidene)-5-methoxy-1H-indole-2-carbohydrazide] | 197 | about 50% | identical absorbance values, as compared to the controls | – | –
COc1ccc2[nH]cc(CCNC(C)=O)c2c1 [Melatonin] | > 500 | – | – | – | –
COc1ccc2[nH]c(C(=O)NN=Cc3ccc(O)c(OC)c3)cc2c1 [Compound 5d, N′-(4-Hydroxy-3-methoxybenzylidene)-5-methoxy-1H-indole-2-carbohydrazide] | 353 | did not induce a modulating effect | statistically identical absorbance values at 515 nm, as compared to the controls | – | –
COc1cc(C=NNC(=O)CCc2c[nH]c3ccccc23)ccc1O [Compound 3d, N′-(4-Hydroxy-3-methoxybenzylidene)-3-(1H-indol-3-yl)propanehydrazide] | 367 | – | statistically identical absorbance values at 515 nm, as compared to the controls | about 10% | –
COc1ccc(C=NNC(=O)c2cc3cc(OC)ccc3[nH]2)c(O)c1 [Compound 5e, N′-(2-Hydroxy-4-methoxybenzylidene)-5-methoxy-1H-indole-2-carbohydrazide] | 12.1 | did not induce a modulating effect | statistically significant changes; also recorded: much higher absorbance values than the controls | – | about 45%
COc1ccc2[nH]c(C(=O)NN=Cc3cc(OC)c(O)c(OC)c3)cc2c1 [Compound 5f, N′-(4-Hydroxy-3,5-dimethoxybenzylidene)-5-methoxy-1H-indole-2-carbohydrazide] | 184 | – | statistically identical absorbance values at 515 nm, as compared to the controls | – | about 45%
COc1cc(C=NNC(=O)CCc2c[nH]c3ccccc23)cc(OC)c1O [Compound 3f, N′-(4-Hydroxy-3,5-dimethoxybenzylidene)-3-(1H-indol-3-yl)propanehydrazide] | > 500 | – | statistically identical absorbance values at 515 nm, as compared to the controls | – | below 65%
COc1ccc2[nH]c(C(=O)NN=Cc3ccc(O)cc3O)cc2c1 [Compound 5c, N′-(2,4-Dihydroxybenzylidene)-5-methoxy-1H-indole-2-carbohydrazide] | > 500 | did not induce a modulating effect | statistically significant changes | – | about 45%
N′-(4-Hydroxy-2-methoxybenzylidene)-3-(1H-indol-3-yl)propanehydrazide [Compound 3e] | – | – | statistically significant changes; also recorded: much higher absorbance values than the controls | about 10% | –
COc1ccc2[nH]c(C(=O)NN=Cc3ccc(O)c(O)c3)cc2c1 [Compound 5b, N′-(3,4-Dihydroxybenzylidene)-5-methoxy-1H-indole-2-carbohydrazide] | 158 | – | statistically identical absorbance values at 515 nm, as compared to the controls | – | –
